Entries after “also recorded” stand apart in the source; their conditions may differ. Read-outs that look alike come from different tables or passages of the source. Starred links: 1 amine or outer side, 2 acyl side, 3 side chain; linkers in the order of their positions; H or OH if unused. Non-standard residues stand in square brackets, D forms with d. Residues, ends and D or L forms follow the SMILES beside them. Groups on a side chain read outwards from the residue. *: point of attachment. Ethylenediamine = C(CN[*:2])N[*:1]; Hyp = O=C(O)[C@@H]1C[C@@H](O)CN1; Phg = N[C@H](C(=O)O)c1ccccc1; CO = O=C([*:1])[*:2]; Bn = c1ccc(C*)cc1

Data set [1] relates to Ki67 staining (cell proliferation). Description: Cell proliferation by Ki67 immunohistochemistry in mammary glands of LoxP mice. The data set is classed as in vivo, mouse. Conditions: for cell proliferation as assessed by Ki67 immunohistochemistry: after treatment.
The subject of data set [2] is cells with more than 1 or 2 centrosomes per cell. Description: Centrosome index by γ-tubulin immunolocalization in mammary glands of LoxP mice (genomic instability). The data set is classed as in vivo, mouse. Conditions: 7 days of treatment. An excerpt:
Evidence directed to this point is presented in FIG. 2A, wherein immunolocalization of γ-tubulin (green) is used to locate centrosomes in the mammary glands of wildtype (WT) or Brca1 deficient (Brca1^LoxP/Brca1^LoxP) mice. Nuclei (blue) are counterstained. As shown therein, 1 or 2 centrosomes per cell are observed in wildtype mice, reflecting normal, control numbers of centrosomes in individual cells.
Nuclei (blue) are counterstained. In wildtype mice, 1 or 2 centrosomes per cell are observed, reflecting normal, control numbers of centrosomes in individual cells.

In another data set the test system is Brca1LoxP/Brca1LoxP mice. Kind of data set: LoxP mammary phenotype (duct width, hyperplasia, HANs) after IGF-I inhibitor treatment. Conditions: for duct width, glandular hyperplasia and hyperplastic alveolar nodules (in words): symptomatic LoxP mice, after treatment. In kind it is in vivo, mouse. How it is done: The present inventor and colleagues have previously shown that growth hormone induced IGF-I activity is essential for mammary development and also estrogen and progesterone action. To determine whether inhibition of IGF-I action would prevent, reverse or delay the abnormalities associated with BRCA deficiency observed in LoxP animals, symptomatic animals were treated with three different compounds that inhibit IGF-I action.
Women with BRCA1 mutations are at high risk for developing breast cancer. As described above, an animal model of Brca1 deficiency (Brca1^LoxP/Brca1^LoxP mouse model system, also referred to herein as the LoxP mouse model system) was developed in which the mammary glands are abnormally developed and which presents with a phenotype similar to that observed in women with BRCA1 mutations. The Brca1loxP/loxP phenotype is characterized by ductal dilatation and epithelial hyperplasia. In earlier studies, 4 month old Brca1loxP/loxP mice were treated with pasireotide, PQ401 (a small molecule kinase inhibitor of the IGF-I receptor), or vehicle for 7 days. At the end of that period, mammary development in drug- vs. vehicle-treated animals was compared.

Data set [3] relates to PR/p63 double positive cells. Kind of data set: Simultaneous immunofluorescence for PR and p63 in mammary glands of Brca1LoxP/Brca1LoxP (C57 loxP) mice. In kind it is in vivo, mouse. Conditions: 7 days of treatment; for frequency of PR/p63 double positive cells (in words): LoxP mice; for frequency of PR/p63 double positive cells: C57 loxP mice, untreated loxP 22.5±0.8%, wildtype 3.8±0.4%. Here is the method:
Simultaneous Immunofluorescence for PR and p63: 3-5 μm paraffin embedded tissue sections from C57/b and C57 loxP mice were stained using antibodies against PR and p63 (Lab Vision). Briefly, samples were deparaffinized by 60° C. heating following by xylene immersion for 30 min. Antigens were retrieved by heating 10 min 95° C. followed by 10 min 85° C. in citric acid pH 6.0 (Vector). […] Next day, specific secondary goat anti mouse Alexa Fluor 488 and donkey anti rabbit Alexa Fluor 594 antibodies (Invitrogen) were used to a final concentration of 1:200 to detect the primary antibodies, by incubating the samples for 1 hour at room temperature. Finally, samples were counterstained using DAPI at 0.02 mg/ml and mounted with Vectashield (Vector). Samples were imaged using a 40× objective with 0.95 numerical aperture Zeiss Plan-Apochromat objective on a Zeiss Axiovert equipped with epifluorescence. The number of epithelial cells positive for PR, p63 or both, was then calculated as the relative frequency of positive cells per epithelial cells per image. Finally, frequencies of positive cells between animal groups were statistically analyzed with the chi-square distribution. A probability of p<0.05 was considered statistically significant. Women with BRCA1 mutations are at high risk for developing breast cancer. As described above, an animal model of Brca1 deficiency (Brca1^LoxP/Brca1^LoxP mouse model system, also referred to herein as the LoxP mouse model system) was developed in which the mammary glands are abnormally developed and which presents with a phenotype similar to that observed in women with BRCA1 mutations. The Brca1loxP/loxP phenotype is characterized by ductal dilatation and epithelial hyperplasia. In earlier studies, 4 month old Brca1loxP/loxP mice were treated with pasireotide, PQ401 (a small molecule kinase inhibitor of the IGF-I receptor), or vehicle for 7 days. At the end of that period, mammary development in drug- vs. vehicle-treated animals was compared.

Data set [4] has as its system mammary gland development. Conditions: rats; cited from earlier work.
For data set [5] the following is noted: rats; Bruns et al. 2002, van der Hoek et al. 2004; cited from earlier work.
Data set [6] is described as follows: Serum glucose and insulin levels during and post SOM230 treatment in patients. Conditions: human, in vivo.
In a further data set the test system is somatostatin receptors. Conditions: of 5 subtypes; cited from earlier work.
For another data set, the target named is SSTR-5 (Homo sapiens, UniProt P35346). Conditions: cited from earlier work.
Sequence of SSTR-5 (P35346 whole entry, species assumed): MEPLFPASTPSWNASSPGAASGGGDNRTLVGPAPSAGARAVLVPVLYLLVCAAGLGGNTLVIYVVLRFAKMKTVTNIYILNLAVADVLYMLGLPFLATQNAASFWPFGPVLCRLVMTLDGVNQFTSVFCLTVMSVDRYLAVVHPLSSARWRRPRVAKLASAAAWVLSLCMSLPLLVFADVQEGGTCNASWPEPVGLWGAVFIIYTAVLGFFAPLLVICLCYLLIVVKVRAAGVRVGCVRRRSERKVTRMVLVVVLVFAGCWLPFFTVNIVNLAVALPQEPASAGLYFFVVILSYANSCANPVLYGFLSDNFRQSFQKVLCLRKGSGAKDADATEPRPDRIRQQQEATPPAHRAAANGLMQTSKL
For the next data set, the target named is SSTR-1 (Homo sapiens, UniProt P30872). Conditions: cited from earlier work.
Sequence of SSTR-1 (P30872 whole entry, species assumed): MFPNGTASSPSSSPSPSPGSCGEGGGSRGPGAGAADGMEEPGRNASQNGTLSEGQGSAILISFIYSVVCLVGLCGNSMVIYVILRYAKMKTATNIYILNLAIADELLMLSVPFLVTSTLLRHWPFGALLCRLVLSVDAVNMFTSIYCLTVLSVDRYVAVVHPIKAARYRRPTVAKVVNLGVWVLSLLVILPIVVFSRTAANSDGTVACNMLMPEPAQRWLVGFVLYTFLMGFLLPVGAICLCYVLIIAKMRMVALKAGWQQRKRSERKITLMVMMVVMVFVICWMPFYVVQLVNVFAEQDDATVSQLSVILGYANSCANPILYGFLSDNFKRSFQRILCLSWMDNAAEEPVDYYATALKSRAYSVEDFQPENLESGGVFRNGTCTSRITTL
For data set [7] the following is noted: Phase III, Cushing's disease; cited from earlier work.
The conditions of data set [8]: humans, cited from earlier work.
A further data set addresses SSTR-3 (Homo sapiens, UniProt P32745). Conditions: cited from earlier work.
The next data set has as its target SSTR-2 (Homo sapiens, UniProt P30874). Conditions: cited from earlier work.
In a further data set the test system is breast cancer. Conditions: women with hyperplastic lesions of the breast; clinical evidence; cited from earlier work.
Where [9] appears, read: 13 patients, 30 days after stopping SOM230.

Sequence of SSTR-2 (P30874 whole entry, species assumed): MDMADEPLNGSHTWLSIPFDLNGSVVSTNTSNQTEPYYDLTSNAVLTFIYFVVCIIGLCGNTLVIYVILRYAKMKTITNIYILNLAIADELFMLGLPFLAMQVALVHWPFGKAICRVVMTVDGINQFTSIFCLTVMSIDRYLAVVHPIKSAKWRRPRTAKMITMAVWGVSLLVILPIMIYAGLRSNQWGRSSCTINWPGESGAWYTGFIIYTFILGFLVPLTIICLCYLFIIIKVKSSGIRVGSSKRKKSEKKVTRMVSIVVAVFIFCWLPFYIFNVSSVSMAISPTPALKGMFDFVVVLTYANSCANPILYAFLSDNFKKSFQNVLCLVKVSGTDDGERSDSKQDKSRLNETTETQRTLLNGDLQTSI
Sequence of SSTR-3 (P32745 whole entry, species assumed): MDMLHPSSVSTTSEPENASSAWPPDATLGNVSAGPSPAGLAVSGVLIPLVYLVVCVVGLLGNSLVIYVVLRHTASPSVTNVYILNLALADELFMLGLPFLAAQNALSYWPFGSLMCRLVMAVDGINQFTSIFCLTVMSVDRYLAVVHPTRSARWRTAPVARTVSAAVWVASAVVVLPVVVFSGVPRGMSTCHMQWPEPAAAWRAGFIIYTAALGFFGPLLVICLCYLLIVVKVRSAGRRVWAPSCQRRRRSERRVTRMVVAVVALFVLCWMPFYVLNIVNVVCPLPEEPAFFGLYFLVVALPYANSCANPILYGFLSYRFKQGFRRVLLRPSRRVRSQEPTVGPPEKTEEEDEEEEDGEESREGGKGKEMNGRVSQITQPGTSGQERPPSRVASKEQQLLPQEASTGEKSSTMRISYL

As for `COc1ccc(Cl)cc1NC(=O)Nc1cc(C)nc2ccccc12` [PQ401], the “cell proliferation as assessed by Ki67 immunohistochemistry” value in data set [1] is “significantly reduce cell proliferation”. Further, the “centrosome index / frequency of cells with more than 1 or 2 centrosomes (in words)” value in data set [2] is reported as “significantly reduced”. The “duct width, glandular hyperplasia and hyperplastic alveolar nodules (in words)” value in the data set with Brca1LoxP/Brca1LoxP mice is “reduces duct width, glandular hyperplasia and hyperplastic alveolar nodules”. For the same compound, the “frequency of PR/p63 double positive cells (in words)” value in data set [3] is “significantly reduce; also recorded: dramatically reduced”.
On to `NCCCC[C@@H]1NC(=O)[C@@H](Cc2c[nH]c3ccccc23)NC(=O)[C@H](c2ccccc2)NC(=O)[C@@H]2C[C@@H](OC(=O)NCCN)CN2C(=O)[C@H](Cc2ccccc2)NC(=O)[C@H](Cc2ccc(OCc3ccccc3)cc2)NC1=O` [SOM230] (cyclo(F[Hyp]([CO-Ethylenediamine])[Phg][dW]KY(Bn))), for which, in data set [4], the “IRS-1 phosphorylation in the mammary gland” value is recorded as “reduction”, the “growth hormone secretion from the pituitary” value is listed as “inhibitory effect” and the mammary gland development result was “prevents mammary gland development”. Besides, the terminal half life in [5] is 27 h. In addition, the “normalization of finger stick glucose after stopping medication (in words)” value in data set [6] is “almost immediately”. Further, in data set [1], the “cell proliferation as assessed by Ki67 immunohistochemistry” value is “significantly reduce cell proliferation”. For the same compound, the “cell proliferation (Ki67 staining) at 21 days post-treatment” value in data set [1] (treated vs untreated, 21 days into rest period) is “continues to be inhibited”. Besides, the “centrosome index / frequency of cells with more than 1 or 2 centrosomes (in words)” value in [2] is listed as “significantly reduced”. Besides, the somatostatin receptors bound in the data set with somatostatin receptors was 4 of the 5. Moreover, the “affinity for SSTR-5” value at SSTR-5 is “high binding affinity”. In the data set on Brca1LoxP/Brca1LoxP mice (LoxP mice), the abnormal ductal dilatation entry is “significant effect on inhibiting” and the “formation of HANs” value is “preventing formation of HANs”. Besides, in the data set with Brca1LoxP/Brca1LoxP mice (LoxP mice, SOM230 treatment then 21 days rest), the “duct width at 21 days post-treatment (in words)” value is on record as “maintained”. Further, in the data set on Brca1LoxP/Brca1LoxP mice (LoxP mice, after end of administration), the “time clinical benefit (reduction in PR/p63+ progenitor cells, ductal width and/or proliferative cells) is maintained into the rest period” value is on record as “at least 20 days”. For the same compound, in the data set on Brca1LoxP/Brca1LoxP mice, the “duct width, glandular hyperplasia and hyperplastic alveolar nodules (in words)” value is “reduces duct width”. Further, the “duct width, glandular hyperplasia and hyperplastic alveolar nodules (in words)” value with Brca1LoxP/Brca1LoxP mice (listed as Pasireotide) is “reduces duct width, glandular hyperplasia and hyperplastic alveolar nodules”. For the same compound, the “affinity for SSTR-1” value at SSTR-1 is on record as “high binding affinity”. Further, in [7], the HbA1C level entry is listed as “increased”, the cholelithiasis is listed as 30%, the diarrhea was 58% and the “fasting plasma glucose level” value is given as “increased”. Besides, in data set [7], the hyperglycemia was 40%, the nausea is recorded as 52% and the “patients with a hyperglycemia-related adverse event” value is listed as 73%. For the same compound, in data set [8] (Bruns et al. 2002, van der Hoek et al. 2004), the terminal half life was 27 h. Besides, in [8] (Ma et al. 2005), the plasma half life result is “approximately 12 hours”. In data set [3], the “frequency of PR/p63 double positive cells” value is 5% and the “frequency of PR/p63 double positive cells (in words)” value is reported as “significantly reduce; also recorded: dramatically reduced”. In addition, the “frequency of PR/p63 double positive cells” value in data set [3] (listed as pasireotide) was 4.8±1.2%. Moreover, the “affinity for SSTR-3” value at SSTR-3 was “high binding affinity”. Besides, the “affinity for SSTR-2” value at SSTR-2 was “high binding affinity”. Besides, for the setting “13 patients”, the “serum glucose at 60 days after discontinuation” value is given as “normal”; the “serum insulin at 60 days after discontinuation” value was “normal”; the “time by which serum glucose and insulin levels normalize after SOM230 administration ceases” value is no more than 30 days. Besides, under setting [9], the mean glucose turned out to be 95 and the serum insulin result is given as “increased”. In addition, where the note is “by 4 days after cessation of SOM230 administration”, the “women tested with finger stick glucoses of less than 92 mg/dL” value is on record as 6 of 8. For the same compound, where the note is “patients diagnosed with or pre-disposed to breast cancer treated with SOM230”, the patients with hyperglycemia came to 100%. For the same compound, the “30 day post-treatment glucose of the patient ultimately determined to be diabetic” value (single patient, initial blood sugar 100) is 117.
Consider `C[C@H](N)C(=O)NCC(=O)N[C@H]1CSSC[C@@H](C(=O)O)NC(=O)[C@H](CO)NC(=O)[C@H]([C@@H](C)O)NC(=O)[C@H](Cc2ccccc2)NC(=O)[C@H]([C@@H](C)O)NC(=O)C(CCCCN)NC(=O)[C@H](Cc2c[nH]c3ccccc23)NC(=O)[C@H](Cc2ccccc2)NC(=O)[C@H](Cc2ccccc2)NC(=O)[C@H](CC(N)=O)NC(=O)[C@H](CCCCN)NC1=O` (some centres unmarked) [SS14], for which, in the data set with somatostatin receptors, the somatostatin receptors bound result is given as “all of the somatostatin receptors”. For the same compound, the “number of HANs” value in the data set with Brca1LoxP/Brca1LoxP mice (nine month old LoxP animals) was “impressive reduction”. Further, the “duct width, glandular hyperplasia and hyperplastic alveolar nodules (in words)” value with Brca1LoxP/Brca1LoxP mice was “reduces duct width, glandular hyperplasia and hyperplastic alveolar nodules”.
For the compound `CC/C(=C(\c1ccccc1)c1ccc(OCCN(C)C)cc1)c1ccccc1` [tamoxifen], the “prevention of the development of cancer” value in the data set with breast cancer is reported as “about 50%”.
